The source of these data is patent publication US4172118A, “Diphenylamine containing therapeutic composition and its applications, particularly in veterinary medicine” (METABIO, priority 1976, dated 1979).

As usually defined, the mortality is the share of the test organisms that died.

The subject of one data set is liver. Put plainly: Pentobarbital-induced sleeping test in mice (hepato-toxicity of carbon tetrachloride). The conditions noted are these: CCl4 0.075 ml/kg; protected group with diphenylamine 4 mg/kg; reference group 20 mn. It counts as in vivo. The procedure:
3. […] This test provides a measure of the capability of the liver to metabolize some toxic materials. The principle is as follows: in normal mice, a certain sleeping time is induced by a certain dosage of pentobarbital; in mice which have been administered 48 hours previously a hepato-toxic material, the same pentobarbital dosage induces a longer sleeping time, because the injured liver has greater difficulty in metabolizing pentobarbital; on administration of a supposedly detoxicant material 24 hours after the toxic material, one may examine whether sleeping time is reduced or not and, thus, may quantify the resulting protection.
This test is effected using carbon tetrachloride as toxicant at a dosage of 0.075 ml/kg, and diphenylamine as protective material at a dosage of 4 mg/kg.

Data set [1] deals with serum glutamic oxalacetic transaminase (S.G.O.T.). Put plainly: Carbon tetrachloride intoxication in ewes, S.G.O.T. level. It counts as in vivo, Ile-de-France ewes. The conditions noted are these: CCl4 3600 mg/kg sub-cutaneous. The procedure:
4. Two groups of non-pregnant Ile-de-France ewes, weighing from 46 to 68 kg, were intoxicated with carbon tetrachloride administered sub-cutaneously at a dosage of 3600 mg/kg, as a suspension in vaseline oil.
The second group alone was simultaneously administered diphenylamine at a dosage of 100 mg/kg.
The criterion used to evaluate the magnitude of the intoxication was the variation of the serum glutamic oxalacetic transaminase (S.G.O.T.) level.
In the following Table, the percent increase of said serum levels is given with respect to the level determined prior to the intoxication.

The nature of data set [2]: Acute toxicity of bithionol sulfoxide with/without diphenylamine in mice (death rate). In kind it is in vivo, mice (male). The conditions noted are these: mouse, in vivo, 7 days. On the procedure:
(§1) The acute toxicity of bithionol sulfoxide was compared with that of a combination of 20 parts bithionol sulfoxide per part diphenylamine.
(§2) Ten groups of 10 male mice each were used for this test. Five reference groups were administered increasing dosages of bithionol sulfoxide alone. The five other groups were administered the bithionol sulfoxide+diphenylamine combination. The test materials were administered orally.
(§3) The data relating to the death rate variations in both groups, with respect to the dosages of product used, are set forth in the following Table.

Data set [3] has as its system mice. Put plainly: Acute toxicity of hexachlorophene with/without diphenylamine in mice (death rate). In kind it is in vivo, mice (male). To be noted: mice, oral; conclusion in words. The procedure:
(§4) Acute toxicity tests were conducted in mice. The death rate noted in mice administered hexachlorophene alone was compared with that noted in mice which were administered the same dosages of hexachlorophene, but which had previously been protected by administration of diphenylamine.
(§5) Ten groups of 10 male mice each were used in such experiments. Five reference groups were given hexachlorophene alone, at increasing dosages. The five other groups were administered diphenylamine at a dosage of 1.5 mg/kg one-half hour prior to administration of the same hexachlorophene dosages as the reference animals. Both compounds were administered orally, using peanut oil as the excipient.
(§6) The data relating to the death rate variations in both groups, with respect to the dosages of compound used, are set forth in the following Table.

In the next data set the test system is Nematodes. To be noted: in dogs; C.A., Vol. 35, 197, 9; cited from earlier work.
Data set [4] concerns mice. Put plainly: Acute toxicity of bithionol sulfoxide with/without diphenylamine in mice (death rate). It counts as in vivo, mice (male). The conditions noted are these: mice, oral; conclusion in words. The procedure: as §1, §2, §3
For data set [5] the following is noted: C.A., Vol. 50-15949d; cited from earlier work.
The next data set has as its system sheep. Put plainly: Hexachlorophene oral intoxication in sheep with/without diphenylamine (deaths). It counts as in vivo. To be noted: for Number of sheep killed: of 5 sheep. The procedure: 7. Six groups of 5 sheep each were orally intoxicated with increasing dosages of hexachlorophene (135-142.5-150 mg/kg) with or without diphenylamine.
A further data set concerns Limousin ewes. Put plainly: Hexachlorophene intoxication in ewes, clinical signs and weight. It counts as in vivo. On the procedure:
5. Two groups of non-pregnant Limousin ewes, weighing from 45 to 52 kg, were intoxicated with hexachlorophene at a dosage of 90 mg/kg, administered orally; whereas the generally used therapeutic dosage is 10 mg/kg.
The clinical signs, and particularly the variation of the weight curve, were noted over a 5 day period of time.
One of the groups was simultaneously administered 2 mg/kg diphenylamine, by the same route of administration.

The next data set deals with myases. The conditions noted are these: in animals; Merck Index, 8th Ed., p. 387; cited from earlier work.
For data set [6] the following is noted: C.A., Vol. 54 17708g; cited from earlier work.
Data set [7] in a line: Acute toxicity of hexachlorophene with/without diphenylamine in mice (death rate). The conditions noted are these: mouse, in vivo, 7 days, combination: diphenylamine 1.5 mg/kg oral one-half hour prior. In kind it is in vivo, mice (male). On the procedure:
as §4, §5, §6

Where [8] appears, read: hexachlorophene 90 mg/kg oral, 5 days, protected group with diphenylamine 2 mg/kg oral.

Take `ClC(Cl)(Cl)Cl` [CCl4, carbon tetrachloride]: the Sleeping time in the data set on liver is listed as 109 mn. Further, the “Percent S.G.O.T. increase” value in [1] (vs level prior to intoxication, Group II with diphenylamine 100 mg/kg simultaneously) amounted to 91%.

For `[O-][S+](c1cc(Cl)cc(Cl)c1O)c1cc(Cl)cc(Cl)c1O` [bithionol sulfoxide], the mortality at 168 h came out at 0% in data set [2] (bithionol sulfoxide 450 mg/kg oral, Group II with diphenylamine 22.5 mg/kg); 10% in data set [2] (bithionol sulfoxide 600 mg/kg oral, Group II with diphenylamine 30 mg/kg); 20% in [2] (bithionol sulfoxide 800 mg/kg oral, Group II with diphenylamine 40 mg/kg); 40% in data set [2] (bithionol sulfoxide 1066 mg/kg oral, Group II with diphenylamine 53 mg/kg); 30% in data set [2] (bithionol sulfoxide 1420 mg/kg oral, Group II with diphenylamine 71 mg/kg).

On to `c1ccc(Nc2ccccc2)cc1` [diphenylamine], for which the hexachlorophene-induced acute toxicity result with mice [3] is listed as “reduces the hexachlorophene-induced acute toxicity in mice”. Further, in the data set on Nematodes, the “action against certain Nematodes” value is given as “against certain Nematodes in dogs”. For the same compound, the “bithionol sulfoxide-induced acute toxicity” value with mice [4] was “reduces the bithionol sulfoxide-induced acute toxicity in mice”. In data set [5], the antiparasitic activity entry was “antiparasitic activity”. Also, in the data set on sheep (hexachlorophene 135-142.5-150 mg/kg oral, sheep), the “death rate (in words)” value is reported as “significant decrease of the death rate”. Also, the “S.G.O.T. level increase (in words)” value in data set [1] (diphenylamine 100 mg/kg) is reported as “S.G.O.T. level increases in a significantly reduced manner”. The “weight stabilization and reduction of the clinical signs” value with Limousin ewes (hexachlorophene 90 mg/kg, diphenylamine 2 mg/kg, oral, conclusion in words) is “weight stabilization and the most substantial reduction of the clinical signs”. Moreover, the “action against certain myases” value in the data set with myases is given as “action against certain myases”. Besides, the anticonvulsant activity entry in data set [6] was “anticonvulsant activity”.

For `Oc1c(Cl)cc(Cl)c(Cl)c1Cc1c(O)c(Cl)cc(Cl)c1Cl` [hexachlorophene], the mortality at 168 h in [7] (hexachlorophene 109.6 mg/kg oral) worked out at 10%; in data set [7] (hexachlorophene 128.2 mg/kg oral) it was 20%; in data set [7] (hexachlorophene 150 mg/kg oral) it was 20%; in data set [7] (hexachlorophene 175.5 mg/kg oral), 40%; in data set [7] (hexachlorophene 205.3 mg/kg oral), 60%. The “Number of sheep killed” value is listed as 1 with sheep (hexachlorophene 135 mg/kg oral, diphenylamine 0 or 1.58 mg/kg); 4 in the data set with sheep (hexachlorophene 142.5 mg/kg oral, diphenylamine 0 or 1.67 mg/kg); 5 in the data set with sheep (hexachlorophene 150 mg/kg oral, diphenylamine 0 or 1.76 mg/kg). Further, in the data set on Limousin ewes (hexachlorophene 90 mg/kg oral, 5 days, one animal of the group), the convulsions result is given as “in one animal of the group, convulsions were observed”. Moreover, in the data set with Limousin ewes (setting [8]), the clinical signs entry is on record as “a sustained state of exhaustion was noted in the animals throughout the observation period”. In addition, in the data set with Limousin ewes (setting [8]), the “loss of weight (in words)” value is given as “General loss of weight was noted”. Moreover, the “decrease of the weight within five days” value in the data set on Limousin ewes (hexachlorophene 90 mg/kg oral, unprotected group) was 14.38%. In the data set on Limousin ewes (hexachlorophene 90 mg/kg oral, unprotected after five days (48.6 kg before), protected with diphenylamine 2 mg/kg, remained stable), the average weight amounted to 41.66 kg.
